Source: patent US20090324701A1, “COMPOSITIONS CONTAINING (S)-BETHANECHOL AND THEIR USE IN THE TREATMENT OF INSULIN RESISTANCE, TYPE 2 DIABETES, GLUCOSE INTOLERANCE AND RELATED DISORDERS” (DIAMEDICA, INC., priority 2006, published 2009)

Experiments:
[1] = system: rats with denervation induced HDIR; assay: RIST, reversal of HISS dependent insulin resistance caused by anterior hepatic plexus denervation (Example 8); format: in vivo, male Spraque Dawely rats; settings: for potentiation for reversing denervation induced HDIR: dose not stated (FIG. 1); for reversal of denervation induced HDIR: in words (FIG. 1); for % Potentiation: potentiation of denervated RIST index
Experimental: The test subjects were male Spraque Dawely rats (supplied by Charles River or The University of Manitoba) weighing between 222.0 to 375 g. The rats were separated into three test groups: For each test group, the rats were fasted for an 8 hour period and then re-fed for a 2 hour period. The rats were anesthetized with pentobarbital sodium (65 mg/kg) and were prepared surgically according to the standard animal preparation used to conduct a control RIST test (Lautt et al., 1998). After surgery the rat stabilizes for 30 minutes. Following the stabilization period and establishment of a baseline, a control RIST was carried out to show the amount of glucose needed to maintain euglycemia after a bolus administration of insulin (50 mU/kg i.v.). The animal underwent surgery to cause insulin resistance. Anterior plexus denervation and portal puncture was performed. After an hour of recovery time a post-denervation RIST was carried out. The inclusion criteria is a RIST index≧250 mg glucose/kg≦140 mg glucose/kg. For each test group, the test compound was administered at various doses μg/kg intraportal venous (0.5 mL bolus, rate of 0.05 mL/min plus 0.03 mL dead-space volume). Following administration of the test compound, a post-administration RIST was carried out and the potentiation calculated as follows: [(Reversal RIST Index−Blocked RIST Index)/Blocked RIST Index]×(100%)=% Potentiation. […] Each test group was repeated using various doses of each test compound to establish a dose-response curve. The doses were determined based upon initial findings.

[2] = target: T1, muscarinic M1 receptors (Homo sapiens, UniProt P11229); assay: Radioligand binding muscarinic M1 binding assay; settings: for competition with [3H] N-methylscopolamine for binding to muscarinic M1 receptors: in words, refers to Table 1
T1 sequence (P11229 1-460): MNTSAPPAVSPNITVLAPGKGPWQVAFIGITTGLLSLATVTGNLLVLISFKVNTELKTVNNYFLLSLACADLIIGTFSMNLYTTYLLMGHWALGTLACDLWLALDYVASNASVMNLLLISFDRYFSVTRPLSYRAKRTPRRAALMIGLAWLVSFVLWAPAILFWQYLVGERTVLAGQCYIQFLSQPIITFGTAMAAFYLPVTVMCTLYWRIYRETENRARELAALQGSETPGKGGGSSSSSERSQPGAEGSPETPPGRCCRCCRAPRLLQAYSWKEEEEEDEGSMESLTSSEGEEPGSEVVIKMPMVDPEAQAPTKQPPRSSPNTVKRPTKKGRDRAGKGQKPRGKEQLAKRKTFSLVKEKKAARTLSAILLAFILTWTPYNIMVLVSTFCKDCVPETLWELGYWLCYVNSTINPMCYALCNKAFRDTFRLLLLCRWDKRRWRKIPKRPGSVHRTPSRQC
Experimental: (§1) The binding assay methodology was an adaptation of the methodology set out in Buckley N J, Bonner T I, Buckley C M and Brann M R (1989), Antagonist binding properties of five cloned muscarinic receptors expressed in CHO-K1 cells. Mol Pharmacol. 35(4): 469-476 and Luthin G R and Wolfe B B (1984), Comparison of [^3H]pirenzepine and [^3H]quinuclidinylbenzilate binding to muscarine cholinergic receptors in rat brain. J Pharmacol Exp Ther. 228(3):648-655.
(§2) The binding assay was performed under the following conditions:
(§3) Source: human recombinant CHO cells
(§4) Ligand: 0.8 nM [^3H] N-Methylscopolamine
(§5) Incubation Time/Temp: 2 hours at 25° C.
(§6) Incubation Buffer: 50 mM Tris-HCl, pH 7.4, 10 mM MgCl2, 1 mM EDTA
(§7) Non-specific Ligand: 1 μM Atropine
(§8) Quantification Method: radioligand binding Significance Criteria: ≧50% of max stimulation of inhibition

[3] = system: rats with insulin resistance produced by hepatic denervation; assay: RIST, insulin sensitivity in rats with insulin resistance produced by hepatic denervation (Examples 5-7); format: in vivo, male Spraque Dawely rats; settings: total dose into the portal vein 0.001 to 0.1 μg/kg beginning 10 minutes prior to insulin (50 mU/kg i.v.); present-tense example
Experimental: The test subjects are male Spraque Dawely rats. The male rat is fasted for an 8 hour period and then re-fed for a 2 hour period. The rat is anesthetized with pentobarbital sodium (65 mg/kg) and is prepared surgically according to the standard animal preparation used to conduct a RIST test (Lautt et al., 1998). After surgery the rat stabilizes for 30 minutes.
Following the stabilization period and establishment of a baseline, a control RIST is carried out to show the amount of glucose needed to maintain euglycemia after a bolus administration of insulin (50 mU/kg i.v.).
The animal undergoes surgery to cause insulin resistance. Surgical denervation of hepatic nerves reaching the liver along the hepatic artery is done. After an hour of recovery time a RIST is then carried out.
Racemic bethanechol is administered to the rat that has been surgically denervated with a total dose into the portal vein of (0.001 to 0.1) μg/kg beginning 10 minutes prior to the insulin administration.
(R)-bethanechol is administered to the rat that has been surgically denervated with a total dose into the portal vein of (0.001 to 0.1) μg/kg beginning 10 minutes prior to the insulin administration.
(S)-bethanechol is administered to the rat that has been surgically denervated with a total dose into the portal vein of (0.001 to 0.1) μg/kg beginning 10 minutes prior to the insulin administration.

[4] = target: T2, muscarinic M3 receptors (Homo sapiens, UniProt P20309); assay: Radioligand binding muscarinic M3 binding assay; settings: for competition with [3H] N-methylscopolamine for binding to muscarinic M3 receptors: in words, refers to Table 2
T2 construct: expressed in transfected cells; host or cells: CHO cells
Experimental: as §1, §2, §3, §4, §5, §6, §7
Bmax: 534 pmol/mg protein
as §8

[5] = system: hepatic glutathione (GSH); assay: Hepatic glutathione levels in denervated rats (Bioxytech GSH420 kit); format: in vivo; settings: compared to animals treated with (R)-bethanechol or racemic bethanechol; present-tense example
Experimental: Hepatic glutathione (GSH) levels are determined for test animals from Example 8 which have a control RIST of ≧170 mg glucose/kg≦250 mg glucose mg/kg.
Following the post-denervation RIST analysis, a liver sample is taken from each test animal using cork borer #4 or #5 to remove a section of liver from the left lateral liver lobe. The top and bottom (1-2 mm) of the sample are trimmed and cut into 2 equal pieces. The samples are flash frozen on dry ice in tin foil, and are labeled with the experiment number and date. The samples are stored at −80 until GSH analysis is performed. Liver GSH levels are determined using the Bioxytech GSH420 kit.

[6] = compound 100 μm, 0.8 nM [3H] N-Methylscopolamine, human recombinant CHO cells
[7] = as compared to R-bethanechol and racemic bethanechol

T2 sequence (P20309 whole entry): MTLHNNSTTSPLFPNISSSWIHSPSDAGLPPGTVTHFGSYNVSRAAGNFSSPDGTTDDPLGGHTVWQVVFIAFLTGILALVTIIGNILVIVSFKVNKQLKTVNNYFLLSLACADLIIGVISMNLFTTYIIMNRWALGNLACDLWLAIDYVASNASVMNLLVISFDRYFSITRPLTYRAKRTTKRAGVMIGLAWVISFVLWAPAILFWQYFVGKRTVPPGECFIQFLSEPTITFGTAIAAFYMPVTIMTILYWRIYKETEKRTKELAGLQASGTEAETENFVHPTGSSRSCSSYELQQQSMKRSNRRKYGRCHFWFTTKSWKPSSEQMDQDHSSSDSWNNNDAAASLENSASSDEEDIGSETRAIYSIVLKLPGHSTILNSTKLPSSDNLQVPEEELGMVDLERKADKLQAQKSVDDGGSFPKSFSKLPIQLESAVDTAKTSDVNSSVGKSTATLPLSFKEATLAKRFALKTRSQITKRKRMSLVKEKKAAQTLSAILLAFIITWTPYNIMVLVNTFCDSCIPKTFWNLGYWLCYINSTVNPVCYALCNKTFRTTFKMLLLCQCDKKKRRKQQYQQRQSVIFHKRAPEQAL

Q: With `CC(C[N+](C)(C)C)OC(N)=O` (racemic) [racemic bethanechol, bethanechol] as the compound, how does the “potentiation for reversing denervation induced HDIR” value [1] read?
A: ca. 52%

Q: And the “reversal of denervation induced HDIR” value [1]?
A: substantial reversal

Q: And the inhibition at 100 µM [2, 6]?
A: -4%

Q: And the “competition with [3H] N-methylscopolamine for binding to muscarinic M1 receptors” value [2]?
A: did not compete

Q: What about the “RIST index: restoration of insulin sensitivity” value (from here on “RIST index: restoration”) [3] of the same compound?
A: restores insulin sensitivity

Q: And the inhibition at 100 µM [4, 6]?
A: -5%

Q: And the “competition with [3H] N-methylscopolamine for binding to muscarinic M3 receptors” value [4]?
A: did not compete

Q: For `C[C@H](C[N+](C)(C)C)OC(N)=O.[Cl-]` [(R)-bethanechol, (R)-(−)-2-Carbamyloxy-1-(N,N,N-trimethyl)-propylammonium chloride], which “reversal of denervation induced HDIR” value [1] is on record?
A: no significant reversal

Q: What about the “% Inhibition” value [2, 6] of the same compound?
A: 0%

Q: And the “competition with [3H] N-methylscopolamine for binding to muscarinic M1 receptors” value [2]?
A: did not compete

Q: And the “RIST index: restoration” value [3]?
A: does not significantly restore insulin sensitivity

Q: What about the “% Inhibition” value [4, 6] of the same compound?
A: −11%

Q: And the “competition with [3H] N-methylscopolamine for binding to muscarinic M3 receptors” value [4]?
A: did not compete

Q: `C[C@@H](C[N+](C)(C)C)OC(N)=O.[Cl-]` [(S)-bethanechol, (S)-(+)-2-Carbamyloxy-1-(N,N,N-trimethyl)-propylammonium chloride] was tested. Which “% Potentiation” value ([1]; dose 0.005 μg/kg intraportal venous) did it give?
A: −1.81%

Q: What about the “% Potentiation” value ([1]; dose 0.010 μg/kg intraportal venous) of the same compound?
A: −13.01%

Q: What about the “% Potentiation” value ([1]; dose 0.025 μg/kg intraportal venous) of the same compound?
A: 12.24%

Q: What about the “% Potentiation” value ([1]; dose 0.050 μg/kg intraportal venous) of the same compound?
A: 34.66%

Q: And the “% Potentiation” value ([1]; dose 0.100 μg/kg intraportal venous)?
A: 48.29%

Q: What about the “% Potentiation” value ([1]; dose 0.250 μg/kg intraportal venous) of the same compound?
A: 58.16%

Q: And the “% Potentiation” value ([1]; dose 0.500 μg/kg intraportal venous)?
A: 71.19%

Q: And the “% Potentiation” value ([1]; dose 0.750 μg/kg intraportal venous)?
A: 69.08%

Q: What about the “% Potentiation” value ([1]; dose 2.000 μg/kg intraportal venous) of the same compound?
A: 57.21%

Q: And the “% Potentiation” value ([1]; dose 5.000 μg/kg intraportal venous)?
A: 40.27%

Q: And the “potentiation for reversing denervation induced HDIR” value [1]?
A: ca. 72%

Q: What about the “reversal of denervation-induced HDIR over dose range” value ([1]; doses ranging between 0.025 to 5.000 μg/kg, 0.250 to 2.000 μg/kg greatest % potentiation) of the same compound?
A: reversed denervation-induced HDIR

Q: And the “reversal of denervation induced HDIR” value [1]?
A: substantial reversal

Q: And the “binding affinity for muscarinic M1 receptors” value [2, 7]?
A: significantly higher

Q: What about the “% Inhibition” value [2, 6] of the same compound?
A: 31%

Q: And the “RIST index: restoration” value [3]?
A: restores insulin sensitivity better than racemic bethanecol

Q: And the “increases in hepatic GSH levels” value [5]?
A: greater increases in hepatic GSH levels

Q: And the “binding affinity for muscarinic M3 receptors” value [4, 7]?
A: significantly higher

Q: What about the “% Inhibition” value [4, 6] of the same compound?
A: 42%
